≈ marks a conversion by molar mass, not a printed value. Entries after “also recorded” stand apart in the source; their conditions may differ. Read-outs that look alike come from different tables or passages of the source.
Tests used:
Format in all cases: cell-based
[1] = system: VISA, strain USA/VISA 5836; test: MIC, agar dilution (BSAC guidelines); conditions: Staphylococcus aureus
Experimental: (§1) In example experiments miconazole nitrate, was dissolved in methanol and econazole nitrate and clotrimazole were dissolved in DMSO and methanol respectively. Other solvents that may be used include caster oil, pyridine, DMSO and 0.9% saline. For IV administration agents may be solubilised in polyethoxylated caster oil, or cyclodextrins such as sulfobutylether7-βcyclodextrin or hydroxypropyl-β-cyclodextrin and lactic acid. Minimum inhibitory concentrations (MICs) of a range of clinical and control bacterial organisms were measured according to BSAC (British Society for Antimicrobial Chemotherapy) guidelines, described briefly as follows;
(§2) Preparation of Agar Plates and Broths
(§3) Stock solutions of each agent were prepared using the formula:
(§4) Where P=μg of active compound per mg (μg/mg) • V=volume required (mL) • C=final concentration of solution (mg/L) • W=weight of agent (mg) to be dissolved in volume V (mL)
(§5) Stock solutions were prepared at concentrations of 1000 mg/L and 100 mg/L. The appropriate amounts of each stock solution were added to separate Petri dishes give the following final concentrations (after the addition of 20 mL molten agar): 128, 64, 32, 16, 8, 4, 2, 1, 0.5, 0.25, 0.12, 0.06, 0.03, 0.015 mg/L.
(§6) Volumes (20 mL) of cooled molten IST agar (oxoid) was added to each Petri dish and mixed by swirling.
(§7) After drying, the plates were stored at 4° C. and protected from light. Plates were used on the day of preparation.
(§8) The test organisms were grown overnight in 5 mL IST broth. Using a dilution in 0.9% saline of 1:500 for Gram-negative organisms and 1:100 for Gram-positive organisms, the appropriate agar plates were inoculated using a multipoint inoculator.
(§9) Plates were incubated at 37° C. in air for 18-20 hours.
(§10) The MIC is the minimum amount of an antibiotic at which there is no visible growth of bacteria. Tiny single colonies or faint hazes were not counted as growth.

[2] = system: Escherichia coli NCTC 10418; test: MIC, agar dilution (BSAC guidelines)
Experimental: as §1, §2, §3, §4, §5, §6, §7, §8, §9, §10

[3] = system: VISA, strain VISA 3900 UK; test: MIC, agar dilution (BSAC guidelines); conditions: Staphylococcus aureus
Experimental: as §1, §2, §3, §4, §5, §6, §7, §8, §9, §10

[4] = system: Enterococcus faecium (VRE) E19 UAA/522 VanB; test: MIC, agar dilution (BSAC guidelines); conditions: E. faecium (VRE) E19 UAA/522 VanB
Experimental: as §1, §2, §3, §4, §5, §6, §7, §8, §9, §10

[5] = system: Enterococcus gallinarum (VRE) E1 NCTC 12359 VanC1; test: MIC, agar dilution (BSAC guidelines)
Experimental: as §1, §2, §3, §4, §5, §6, §7, §8, §9, §10

[6] = system: VISA, strain USA/VISA 5827; test: MIC, agar dilution (BSAC guidelines); conditions: Staphylococcus aureus
Experimental: as §1, §2, §3, §4, §5, §6, §7, §8, §9, §10

[7] = system: Enterococcus faecium (VRE) VanR B145344C LFE; test: MIC, agar dilution (BSAC guidelines); conditions: E. faecium (VRE) VanR B145344C LFE
Experimental: as §1, §2, §3, §4, §5, §6, §7, §8, §9, §10

[8] = system: Acinetobacter Baumannii ATCC 19606; test: MIC, agar dilution (BSAC guidelines)
Experimental: as §1, §2, §3, §4, §5, §6, §7, §8, §9, §10

[9] = system: Enterococcus faecium (VRE) NCTC 7171; test: MIC, agar dilution (BSAC guidelines)
Experimental: as §1, §2, §3, §4, §5, §6, §7, §8, §9, §10

[10] = system: Enterococcus faecalis (VRE) E8 VanA; test: MIC, agar dilution (BSAC guidelines); conditions: E. faecalis (VRE) E8 VanA
Experimental: as §1, §2, §3, §4, §5, §6, §7, §8, §9, §10

[11] = system: Enterococcus faecium (VRE) E15 VanA ATCC 4147; test: MIC, agar dilution (BSAC guidelines)
Experimental: as §1, §2, §3, §4, §5, §6, §7, §8, §9, §10

[12] = system: Klebsiella pneumoniae ESBL 700603; test: MIC, agar dilution (BSAC guidelines)
Experimental: as §1, §2, §3, §4, §5, §6, §7, §8, §9, §10

[13] = system: Pseudomonas aeruginosa NCTC 10662; test: MIC, agar dilution (BSAC guidelines)
Experimental: as §1, §2, §3, §4, §5, §6, §7, §8, §9, §10

[14] = system: Staphylococcus epidermidis ATCC 1228; test: MIC, agar dilution (BSAC guidelines)
Experimental: as §1, §2, §3, §4, §5, §6, §7, §8, §9, §10

[15] = system: strains of Staphylococci and Enterococci with reduced susceptibility to vancomycin; test: Growth inhibition, summary of MIC testing; conditions: summary in words
Experimental: as §1, §5, §8, §9, §10

Gram-negative organisms = test: Growth inhibition, summary of MIC testing; conditions: summary in words
Experimental: as §1, §5, §8, §9, §10

[16] = replicate 1, read-out: Minimum inhibitory concentration (MIC)
[17] = replicate 2, read-out: Minimum inhibitory concentration (MIC)
[18] = replicate 3, read-out: Minimum inhibitory concentration (MIC)

Clc1ccc(COC(Cn2ccnc2)c2ccc(Cl)cc2Cl)cc1 (centres unmarked) [Econazole]
MIC [1, 16]: 2 µg/mL (≈ 5.24 µM)
MIC [1, 17]: 4.5 µg/mL (≈ 11.8 µM)
MIC [1, 18]: 4 µg/mL (≈ 10.5 µM)
MIC ([2]; NCTC10418, E. coli NCTC 10418, replicate 1, read-out: Minimum inhibitory concentration (MIC)): > 10 µg/mL
MIC ([2]; NCTC10418, E. coli NCTC 10418, replicate 2, read-out: Minimum inhibitory concentration (MIC)): > 6 µg/mL
MIC ([2]; NCTC10418, E. coli NCTC 10418, replicate 3, read-out: Minimum inhibitory concentration (MIC)): > 6 µg/mL
MIC [3, 16]: 1.5 µg/mL (≈ 3.93 µM)
MIC [3, 17]: 2 µg/mL (≈ 5.24 µM)
MIC [3, 18]: 2 µg/mL (≈ 5.24 µM)
MIC [4, 16]: 2 µg/mL (≈ 5.24 µM)
MIC [4, 17]: 4.5 µg/mL (≈ 11.8 µM)
MIC [4, 18]: 2 µg/mL (≈ 5.24 µM)
MIC ([5]; E. gallinarum (VRE) E1 NCTC 12359 VanC1, replicate 1, read-out: Minimum inhibitory concentration (MIC)): 3 µg/mL (≈ 7.86 µM)
MIC ([5]; E. gallinarum (VRE) E1 NCTC 12359 VanC1, replicate 2, read-out: Minimum inhibitory concentration (MIC)): 5.5 µg/mL (≈ 14.4 µM)
MIC ([5]; E. gallinarum (VRE) E1 NCTC 12359 VanC1, replicate 3, read-out: Minimum inhibitory concentration (MIC)): 3 µg/mL (≈ 7.86 µM)
MIC [6, 16]: 1.5 µg/mL (≈ 3.93 µM)
MIC [6, 17]: 2 µg/mL (≈ 5.24 µM)
MIC [6, 18]: 2.5 µg/mL (≈ 6.55 µM)
MIC [7, 16]: 3.5 µg/mL (≈ 9.17 µM)
MIC [7, 17]: 5 µg/mL (≈ 13.1 µM)
MIC [7, 18]: 2.5 µg/mL (≈ 6.55 µM)
MIC ([8]; ATCC19606, Acinetobacter Baumannii ATCC 19606, replicate 1, read-out: Minimum inhibitory concentration (MIC)): > 10 µg/mL
MIC ([8]; ATCC19606, Acinetobacter Baumannii ATCC 19606, replicate 2, read-out: Minimum inhibitory concentration (MIC)): > 6 µg/mL
MIC ([8]; ATCC19606, Acinetobacter Baumannii ATCC 19606, replicate 3, read-out: Minimum inhibitory concentration (MIC)): > 6 µg/mL
MIC ([9]; E. faecium (VRE) NCTC 7171, replicate 1, read-out: Minimum inhibitory concentration (MIC)): 4 µg/mL (≈ 10.5 µM)
MIC ([9]; E. faecium (VRE) NCTC 7171, replicate 2, read-out: Minimum inhibitory concentration (MIC)): > 6 µg/mL
MIC ([9]; E. faecium (VRE) NCTC 7171, replicate 3, read-out: Minimum inhibitory concentration (MIC)): > 6 µg/mL
MIC [10, 16]: 7 µg/mL (≈ 18.3 µM)
MIC [10, 17]: > 6 µg/mL
MIC [10, 18]: > 6 µg/mL
MIC ([11]; E. faecium (VRE) E15 VanA ATCC 4147, replicate 1, read-out: Minimum inhibitory concentration (MIC)): 3 µg/mL (≈ 7.86 µM)
MIC ([11]; E. faecium (VRE) E15 VanA ATCC 4147, replicate 2, read-out: Minimum inhibitory concentration (MIC)): 4.5 µg/mL (≈ 11.8 µM)
MIC ([11]; E. faecium (VRE) E15 VanA ATCC 4147, replicate 3, read-out: Minimum inhibitory concentration (MIC)): 3 µg/mL (≈ 7.86 µM)
MIC ([12]; ESBL700603, K. pneumoniae ESBL 700603, replicate 1, read-out: Minimum inhibitory concentration (MIC)): > 10 µg/mL
MIC ([12]; ESBL700603, K. pneumoniae ESBL 700603, replicate 2, read-out: Minimum inhibitory concentration (MIC)): > 6 µg/mL
MIC ([12]; ESBL700603, K. pneumoniae ESBL 700603, replicate 3, read-out: Minimum inhibitory concentration (MIC)): > 6 µg/mL
MIC ([13]; NCTC10662, P. aeruginosa NCTC 10662, replicate 1, read-out: Minimum inhibitory concentration (MIC)): > 10 µg/mL
MIC ([13]; NCTC10662, P. aeruginosa NCTC 10662, replicate 2, read-out: Minimum inhibitory concentration (MIC)): > 6 µg/mL
MIC ([13]; NCTC10662, P. aeruginosa NCTC 10662, replicate 3, read-out: Minimum inhibitory concentration (MIC)): > 6 µg/mL
MIC ([14]; ATCC1228, S. epidermidis ATCC 1228, replicate 1, read-out: Minimum inhibitory concentration (MIC)): 4 µg/mL (≈ 10.5 µM)
MIC ([14]; ATCC1228, S. epidermidis ATCC 1228, replicate 2, read-out: Minimum inhibitory concentration (MIC)): 2 µg/mL (≈ 5.24 µM)
MIC ([14]; ATCC1228, S. epidermidis ATCC 1228, replicate 3, read-out: Minimum inhibitory concentration (MIC)): 2.5 µg/mL (≈ 6.55 µM)
activity against strains of Staphylococci and Enterococci with reduced susceptibility to vancomycin [15]: good activity; also recorded: capable of inhibiting the growth
activity against Gram-negative organisms (Gram-negative organisms): no significant activity

From patent publication US20100144626A1, “Treatment of Multi-Drug Resistant Bacterial Infections” (priority 2006, published 2010)
